Laboratory results: US11013735B2, “Specific Akt3 inhibitor and uses thereof” (Augusta University Research Institute, Inc., priority 2016, dated 2021)

Columns and labels:
CD4+ T cells = assay: Proliferation (level of VCT) of FACS-sorted CD4+ T cells by flow cytometry; type: cell-based, C57BL/6J(foxp3-GFP); details: anti-CD3, IL2 and anti-CD28, 72 hrs, live gated cells
Procedure: (§1) FACS-sorted nTregs, CD4+ and CD8+ T cells from C57BL/6J(foxp3-GFP) were plated on anti-CD3-coated plates and cultured in activation media (IL2 and anti-CD28) without inhibitors (Stimulated) and with inhibitors (JJ64-E) for 72 hrs. For negative control (Non-stimulated-NS) cells were left in media containing IL-2 for 72 hrs. After 72 hrs Proliferation (level of VCT) in live gated cells was measured by flow cytometry.

Akt1 = molecular target: T1, Akt1 (Mus musculus, UniProt P31750); assay: Immunoblot of Akt1 phosphorylation (pAkt1) in activated nTregs; type: cell-based, WT C57BL/6J (foxp3-GFP) mice; details: nTregs on anti-CD3 with IL2 and anti-CD28, different concentrations of inhibitor, 72 hrs
T1 construct: endogenous in cells; host or cells: FACS-sorted primary nTregs from WT C57BL/6J (foxp3-GFP) mice
T1 sequence (P31750 whole entry): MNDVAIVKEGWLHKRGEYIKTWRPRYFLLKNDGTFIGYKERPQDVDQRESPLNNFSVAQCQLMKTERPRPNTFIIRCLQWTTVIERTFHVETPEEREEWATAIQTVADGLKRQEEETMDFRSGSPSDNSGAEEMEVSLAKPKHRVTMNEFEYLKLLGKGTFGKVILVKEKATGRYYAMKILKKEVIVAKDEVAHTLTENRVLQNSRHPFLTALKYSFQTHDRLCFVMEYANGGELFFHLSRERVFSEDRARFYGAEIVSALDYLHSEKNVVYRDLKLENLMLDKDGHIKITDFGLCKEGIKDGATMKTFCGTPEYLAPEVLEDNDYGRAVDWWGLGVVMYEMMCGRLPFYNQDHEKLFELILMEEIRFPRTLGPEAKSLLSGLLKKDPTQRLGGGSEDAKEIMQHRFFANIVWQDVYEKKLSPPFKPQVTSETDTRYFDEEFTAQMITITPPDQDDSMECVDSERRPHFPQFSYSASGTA
Procedure: (§2) FACS-sorted natural regulatory T cells (nTregs), from WT C57BL/6J (foxp3-GFP) mice were plated on anti-CD3-coated plates and cultured in activation media (IL2 and anti-CD28) without inhibitors (Stimulated) and with different concentrations of inhibitor 4-[(6-nitroquinolin-4-yl)amino]-N-[4-(pyridin-4-ylamino)phenyl]benzamide (also referred to as JJ64-E) for 72 hrs. For negative control (Non-stimulated-NS) cells were left in media containing IL-2 for 72 hrs. nTreg cell lysates prepared on day 3 (72 hrs) of treatment were separated by SDS-PAGE and immunoblotted with specific antibodies (pAkt1) or pAkt3; actin was used as loading control.

Tregs (CD4+Foxp3+) = assay: Percentage of Tregs in vivo in TC-1 tumor model; parameters: species or system WT C57BL/6J mice; details: TC-1 tumor-bearing mice, 5 mg/kg or 10 mg/kg i.p. every day from day 10, analysed day 15
Procedure: (§3) WT C57BL/6J mice (n=3/group) were injected s.c. in the right flank with 7×10^4 TC-1 cells. Mice from appropriate groups were treated with either 5 mg/kg or 10 mg/kg of JJ64-E injected (i.p.) every day starting on day 10 after tumor implantation throughout the experiment. All groups were euthanized on day 15 of TC-1 implantation. The percentage of Tregs (CD4+Foxp3+) was analyzed by flow cytometry.
(§4) Statistical significance was determined by one-way ANOVA with Tukey's multiple comparison test (*, p<0.05; **, p<0.01; ***, p<0.001).

TC-1 tumor [1] = assay: TC-1 tumor growth and survival, JJ64-E alone or with vaccine; type: in vivo, C57BL/6 mice; details: i.p. every day from day 6
Procedure: (§5) C57BL/6 mice (n=5/group) were injected s.c. in the right flank with 7×10^4 TC-1 cells. Mice from appropriate groups were injected weekly with vaccine (s.c.) or DMSO 5% as a control. Mice were also treated with vaccine (weekly) along with either 10 mg/kg or 20 mg/kg of JJ64-E injected (i.p.) every day starting on day 6 after tumor implantation throughout the experiment.
FIGS. 5B and 5C are bar diagrams showing average tumor volumes of mice for each group. FIG. 5D is a Kaplan-Meier plot of the overall survival. Statistical significance was determined by Log-rank (Mantel-Cox) test.
as §4

CD8+ T cells = assay: Proliferation (level of VCT) of FACS-sorted CD8+ T cells by flow cytometry; type: cell-based, C57BL/6J(foxp3-GFP); details: anti-CD3, IL2 and anti-CD28, 72 hrs, live gated cells
Procedure: as §1

[2] = tested on: CD8 and other (FoxP3neg) CD4 T cells; assay: Percentage of CD4 and CD8 T cells in vivo in TC-1 tumor model; parameters: species or system WT C57BL/6 mice; details: TC-1 tumor-bearing mice, 5 mg/kg or 10 mg/kg i.p. everyday from day 10, day 15, spleen
Procedure: as §3, with “C57BL/6 4-6 weeks old female” for “C57BL/6J”, “(n=5/group)” for “(n=3/group)”, “everyday” for “every day”, “CD4 and CD8 were” for “Tregs (CD4+Foxp3+) was”, “analyzed in splenic CD4+ cells” for “analyzed”

nTregs = assay: Proliferation (level of VCT) of FACS-sorted nTregs by flow cytometry; type: cell-based, C57BL/6J(foxp3-GFP); details: anti-CD3, IL2 and anti-CD28, 72 hrs, live gated cells
Procedure: as §1

Akt3 = molecular target: T2, Akt3 (Mus musculus, UniProt Q9WUA6); assay: Immunoblot of Akt3 phosphorylation (pAkt3) in activated nTregs; type: cell-based, WT C57BL/6J (foxp3-GFP) mice; details: nTregs on anti-CD3 with IL2 and anti-CD28, different concentrations of inhibitor, 72 hrs
T2 construct: nTreg cell lysates prepared on day 3 (72 hrs) of treatment were separated by SDS-PAGE and immunoblotted; endogenous in cells; host or cells: FACS-sorted primary nTregs from WT C57BL/6J (foxp3-GFP) mice
T2 sequence (Q9WUA6 whole entry): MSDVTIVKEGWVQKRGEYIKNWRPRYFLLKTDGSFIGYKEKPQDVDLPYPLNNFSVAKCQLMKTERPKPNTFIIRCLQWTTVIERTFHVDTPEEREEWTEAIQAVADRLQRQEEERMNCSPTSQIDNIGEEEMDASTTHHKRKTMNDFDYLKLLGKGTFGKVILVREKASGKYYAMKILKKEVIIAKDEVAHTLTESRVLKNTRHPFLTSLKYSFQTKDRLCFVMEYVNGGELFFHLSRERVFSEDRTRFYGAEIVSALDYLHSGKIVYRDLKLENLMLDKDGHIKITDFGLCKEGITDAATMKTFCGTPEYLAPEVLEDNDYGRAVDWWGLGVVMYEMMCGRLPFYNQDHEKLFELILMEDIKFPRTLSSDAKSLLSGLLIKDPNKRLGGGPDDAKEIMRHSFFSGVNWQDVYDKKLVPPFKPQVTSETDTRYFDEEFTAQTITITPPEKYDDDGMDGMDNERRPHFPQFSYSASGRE
Procedure: as §2

[3] = tested on: iTreg induction (CD4+FoxP3+ cells); assay: iTreg induction from CD4+FoxP3- cells (TGF-β), flow cytometry; type: cell-based; details: anti-CD3, IL2, anti-CD28, TGF-β, 72 hrs
Procedure: (§6) FACS-sorted CD4+FoxP3− cells were plated on anti-CD3-coated plates with soluble IL2 and anti-CD28 with TGF-β (induction) Cell were induced for iTregs with JJ64-B (FIG. 6A) without inhibitor (Induction-IND)) for 72 hrs. Cells were harvested and the frequency of CD4+FoxP3+ cells was measured by flow cytometry.
as §6, with “JJ64-C (JJ64 modified drug C or Formula 18) or” for “JJ64-B (FIG. 6A)”
as §6, with “JJ64-D (JJ64 modified drug D or FIG. 9A) or” for “JJ64-B (FIG. 6A)”

TC-1 tumor [4] = assay: TC-1 tumor growth and survival, JJ64-C alone or with vaccine; type: in vivo, C57BL/6 mice; details: i.p. every other day from day 6
Procedure: as §5, with “JJ64-C (or FIG. 7A or Formula 18)” for “JJ64-E”, “every other” for “every”
FIGS. 7C and 7D are bar diagrams representing average tumor volumes of mice for each group. FIG. 7E is a Kaplan-Meier plot of the overall survival. Statistical significance was determined by Log-rank (Mantel-Cox) test.
as §4

[5] = high dose as monotherapy (10 or 20 mg/kg tested)
[6] = lower dose combined with weekly vaccine s.c. (10 or 20 mg/kg tested)
[7] = high dose as monotherapy (10 or 20 mg/kg)
[8] = lower dose combined with weekly vaccine s.c. (10 or 20 mg/kg)

SMILES | other CD4 T cell proliferation (level of VCT) (CD4+ T cells) | Akt1 phosphorylation in Tregs (pAkt1 immunoblot) (Akt1) | percentage of Tregs (CD4+Foxp3+) in vivo (Tregs (CD4+Foxp3+)) | TC-1 tumor growth (tumor volume) (TC-1 tumor [1]; [5]) | overall survival (Kaplan-Meier) (TC-1 tumor [1]; [5]) | TC-1 tumor growth (tumor volume) (TC-1 tumor [1]; [6]) | overall survival (Kaplan-Meier) (TC-1 tumor [1]; [6]) | CD8 T cell proliferation (level of VCT) (CD8+ T cells) | CD8 T cells in vivo [2] | other (FoxP3neg) CD4 T cells in vivo [2] | Treg proliferation (level of VCT) (nTregs) | Akt3 phosphorylation in Tregs (pAkt3 immunoblot) (Akt3) | iTreg induction (frequency of CD4+FoxP3+ cells) [3] | TC-1 tumor growth (tumor volume) (TC-1 tumor [4]; [7]) | overall survival (Kaplan-Meier) (TC-1 tumor [4]; [7]) | TC-1 tumor growth (tumor volume) (TC-1 tumor [4]; [8]) | overall survival (Kaplan-Meier) (TC-1 tumor [4]; [8])
O=C(Nc1ccc(Nc2ccncc2)cc1)c1ccc(Nc2ccnc3ccc([N+](=O)[O-])cc23)cc1 [4-[(6-nitroquinolin-4-yl)amino]-N-[4-(pyridin-4-ylamino)phenyl]benzamide] | sparing CD8 and other CD4 T cells | not Akt1 phosphorylation | decreases Tregs in vivo | inhibits TC-1 tumor growth | prolongs the survival | inhibits TC-1 tumor growth | prolongs the survival | sparing CD8 | does not affect CD8 | does not affect CD8 and other (FoxP3neg) CD4 T cells | selectively inhibits Treg proliferation | inhibits Akt3 |  |  |  |  | 
O=C(Nc1cccc(Nc2ccncc2)c1)c1cccc(Nc2ccnc3ccc(F)cc23)c1 [compound 18] |  |  |  |  |  |  |  |  |  |  |  |  | inhibits iTregs induction | inhibits TC-1 tumor growth | prolongs the survival | inhibits TC-1 tumor growth | prolongs the survival
